Laboratory results from PubChem BioAssay AID2086 (NMMLSC, 2009).
Activity calls are given as the source filed them. How the calls were made is not given here.

Molecular target: Induced myeloid leukemia cell differentiation protein Mcl-1 (Homo sapiens) (UniProt Q07820)
Assay: regulators of Bim-Mcl-1 interaction, confirmation, biochemical, bead-based flow cytometry, multiplex, HTS hits (AID 2086)
Conditions: for response, inhibition or activation: at 100 µM (top of the series)

Sequence of Induced myeloid leukemia cell differentiation protein Mcl-1 (Homo sapiens) (Q07820 whole entry, looked up): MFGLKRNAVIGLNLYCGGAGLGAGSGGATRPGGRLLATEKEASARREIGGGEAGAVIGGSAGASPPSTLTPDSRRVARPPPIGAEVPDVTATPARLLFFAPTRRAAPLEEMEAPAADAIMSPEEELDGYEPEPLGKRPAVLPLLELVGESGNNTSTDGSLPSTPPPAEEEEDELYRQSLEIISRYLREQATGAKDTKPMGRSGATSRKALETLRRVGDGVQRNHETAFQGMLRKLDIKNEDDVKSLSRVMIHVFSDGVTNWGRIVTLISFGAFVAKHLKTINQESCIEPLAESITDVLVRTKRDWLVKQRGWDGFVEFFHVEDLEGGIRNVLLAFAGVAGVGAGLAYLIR

| Structure (SMILES) | response, inhibition or activation | EC50 |
| --- | --- | --- |
| Cc1cc(-c2cc(-c3ccc(Cl)cc3)nc(N)c2C#N)co1 | inactive |  |
| CN(CCO)c1cc(Sc2nc3ccccc3s2)c2nonc2c1[N+](=O)[O-] | inactive |  |
| CCN(CC)c1ccc(NC(=O)COc2ccccc2C)cc1S(=O)(=O)Nc1ccccc1OC | inactive |  |
| CCN(CC)c1ccc(NC(=O)c2ccccc2F)cc1S(=O)(=O)Nc1ccccc1OC | inactive |  |
| O=C1NC(=O)C(=Cc2ccc(-c3cc(Cl)ccc3[N+](=O)[O-])o2)C(=O)N1 | inactive |  |
| Oc1ccc(NCc2ccccc2OCc2ccccc2)cc1 | inactive |  |
| O=C1C(Cl)=C(N2CCN(c3ccccc3[N+](=O)[O-])CC2)C(=O)c2ccccc21 | inactive |  |
| S=c1[nH]cc(-c2ccccc2)n1-c1ccccc1 | inactive |  |
| Clc1nc(NCc2cccnc2)nc(N2CCOCC2)n1 | inactive |  |
| O=C1c2ccccc2C(=O)N1CN(C(=O)COc1ccc(Cl)cc1Cl)c1cccc(F)c1 | inactive |  |
| COc1ccc(N2C(=O)C(Cl)=C(NC3C(=O)N(c4ccccc4)N(C)C3C)C2=O)cc1 (stereo unspecified) |  | inactive |
| O=C(/C=C/c1ccc(-c2ccccc2[N+](=O)[O-])o1)c1ccccc1 | inactive |  |
| O=C1/C(=C\c2ccco2)NC(=S)N1c1ccccc1 | inactive |  |
| CCN(CC)C(=O)COC(=O)c1cc(-c2ccco2)nc2ccccc12 | inactive |  |
| CC(=O)Nc1ccc(-n2cc(-c3ccccc3)[nH]c2=S)cc1 | inactive |  |
| CCN1C(=O)/C(=C\C=C2/C=CC=CN2CC)SC1=S | inactive |  |

| Structure (SMILES) | response, inhibition or activation | EC50 |
| --- | --- | --- |
| COc1cc(CNc2ccc3[nH]c(=O)[nH]c3c2)cc(Br)c1OCC(=O)NC(C)(C)C | inactive |  |
| O=C(Nc1nnc(COc2ccc(Cl)cc2)s1)c1ccco1 | inactive |  |
| C=CS(=O)(=O)c1sc(Cl)c(N2CCOCC2)c1[N+](=O)[O-] | inactive |  |
| O=[N+]([O-])c1c(NCCCO)cc(Sc2nc3ccccc3s2)c2nonc12 | inactive |  |
| CCOc1ccccc1CNc1ccc(O)cc1 | inactive |  |
| O=c1c2c(n3nnnc3n1Cc1ccccc1)-c1ccccc1CC21CCCC1 | inactive |  |
| Cc1ccc(-c2cc(C(=O)Nc3nccs3)c3ccccc3n2)o1 | inactive |  |
| COc1ccccc1NC1=C(NC(C)=O)C(=O)c2ccccc2C1=O | inactive |  |
| CNC(CC(=O)c1ccc([N+](=O)[O-])cc1)C(Cl)(Cl)Cl (stereo unspecified) | inactive |  |
| Cc1ccc(-c2cc(-c3ccc(C)o3)nc(N)c2C#N)cc1 | inactive |  |
| COc1ccccc1-n1c(-c2ccccc2)c[nH]c1=S | inactive |  |
| Cc1nnc(Sc2cc(NCCO)c([N+](=O)[O-])c3nonc23)s1 | inactive |  |
| CCN(CC)c1ccc(NC(=O)c2ccccc2Br)cc1S(=O)(=O)Nc1ccccc1OC | inactive |  |
| CC(=O)OCCCNc1cc(Sc2nc3ccccc3s2)c2nonc2c1[N+](=O)[O-] | inactive |  |
| Cc1ccc(-c2cc(-c3ccc(F)cc3)c(C#N)c(N)n2)o1 | inactive |  |
